# From PMC12388496, “Discovery of (E)-1,3-Diphenyl-2-Propen-1-One Derivatives as Potent and Orally Active NLRP3 Inflammasome Inhibitors for Colitis” (Molecules, 2025)
# How the values were obtained:
# [1] = tested on: IL-1β secretion in BMDM cells (NLRP3 inflammasome); experiment: ELISA of IL-1β secretion in LPS/nigericin-treated BMDM cells; assay type: cell-based; details: Mus musculus; 20 µM; LPS/nigericin-treated BMDM cells; mean ± S.E.M. (n = 3); read-out: IL-1β Inhibition Rate (%)
# Experimental: When L929 cells reach the logarithmic phase, collect the cell supernatant. Filter the supernatant using a 0.22 μm filter and store it at −20 °C for future use. The 7-week-old C57BL/6 mice were selected as the source of primary bone marrow macrophages. The mice were euthanized using the cervical dislocation method. The ends of the femurs were cut, and the bone marrow was flushed into a 15 mL centrifuge tube using a 5 mL syringe. Once all the bone marrow was collected, an appropriate amount of red blood cell lysis buffer was added to the centrifuge tube. The mixture was incubated for 3–5 min, with repeated pipetting to thoroughly lyse the red blood cells. The cells were then centrifuged and collected. Add 30–40% L929 cell supernatant or M-CSF stimulatory factor to the culture dish. Culture the cells in a cell incubator at 37 °C with 5% CO2. Observe the cell condition daily, and once most cells have adhered to the surface, proceed with subsequent experiments.
# Inoculate 1.0 × 10^5 BMDMs cells per well into a 96 well plate and culture overnight. Stimulate the cells with lipopolysaccharide (LPS) at a concentration of 0.2 μg/mL for 3 h, then add different concentrations of the test compounds and incubate for 30 min. Finally, add Nigericin at a concentration of 10 μM to continue the induction for 30 min. Collect the cell supernatant and measure the IL-1β secretion level in the supernatant using an ELISA kit, following the instructions provided, and calculate the IC50 value based on the relevant calculations. To ensure the accuracy and reliability of the experimental results, all experiments were repeated three times, with each experiment performed independently.
# [2] = MTT assay, HepaRG cytotoxicity; assay type: cell-based; details: human, HepaRG cells, n = 3
# Experimental: HepaRG cells in the logarithmic growth phase (10^5 cells/mL), inoculate them into a 96-well plate, and culture overnight in a 37 °C, 5% CO2 incubator. Add compounds at different concentrations and continue culturing for 24 h. Add 20 μL of MTT solution, incubate for 4 h, discard the supernatant, and add DMSO to dissolve.
Structure (SMILES),inhibition at 20 µM [1],IC50 at 24 h [2]
"O=C(/C=C/c1cccc(O)c1)c1ccccc1 [Compound F4, (E)-3-(3-hydroxyphenyl)-1-phenylpropyl-2-en-1-one]",25.6 ± 9.03%,> 50 µM
"Cc1ccc(C(=O)/C=C/c2ccc(O)cc2)c(C)c1 [Compound W8, (E)-1-(2,4-dimethylphenyl)-3-(4-hydroxyphenyl)propyl-2-en-1-one]",88.9 ± 5.91%,> 50 µM
"Cc1ccc(C(=O)/C=C/c2ccc(O)cc2)cc1C [Compound W9, (E)-1-(3,4-dimethylphenyl)-3-(4-hydroxyphenyl)propyl-2-en-1-one]",10.3 ± 6.43%,> 50 µM
"O=C(/C=C/c1ccccc1O)c1ccc(Br)cc1 [Compound F9, (E)-1-(4-bromophenyl)-3-(2-hydroxyphenyl)propyl-2-en-1-one]",28.4 ± 5.76%,> 50 µM
"O=C(/C=C/c1ccccc1O)c1cccc2ccccc12 [Compound F15, (E)-3-(2-hydroxyphenyl)-1-(naphthale-1-yl)propyl-2-en-1-one]",91.7 ± 5.89%,> 50 µM
"O=C(/C=C/c1ccc(O)cc1)c1cccc(F)c1 [Compound W10, (E)-1-(3-fluorophenyl)-3-(4-hydroxyphenyl)propyl-2-en-1-one]",33.6 ± 3.21%,> 50 µM
"O=C(/C=C/c1ccccc1O)c1cccs1 [Compound F16, (E)-3-(2-hydroxyphenyl)-1-(thiophene-2-yl)propion-2-en-1-one]",92.6 ± 3.23%,> 50 µM
"O=C(/C=C/c1ccc(O)cc1)c1cccc2ccccc12 [Compound W11, (E)-3-(4-hydroxyphenyl)-1-(naphthalene-1-yl)propyl-2-en-1-one]",88.3 ± 7.01%,> 50 µM
"O=C(/C=C/c1ccccc1O)c1ccc(Cl)cc1 [Compound F8, (E)-1-(4-chlorophenyl)-3-(2-hydroxyphenyl)propyl-2-en-1-one]",45.9 ± 3.45%,> 50 µM
"COc1cccc(C(=O)/C=C/c2cccc(O)c2)c1 [Compound F3, (E)-3-(3-hydroxyphenyl)-1-(3-methoxyphenyl)propyl-2-en-1-one]",93.4 ± 2.98%,> 50 µM
"O=C(/C=C/c1cccc(O)c1)c1cccc(F)c1 [Compound F13, (E)-1-(3-fluorophenyl)-3-(3-hydroxyphenyl)propyl-2-en-1-one]",34 ± 8.74%,> 50 µM
"COc1cccc(C(=O)/C=C/c2ccc(O)cc2)c1 [Compound W2, (E)-3-(4-hydroxyphenyl)-1-(3-methoxyphenyl)propyl-2-en-1-one]",67 ± 1.23%,> 50 µM
"CC(C)(O)c1coc(S(=O)(=O)NC(=O)Nc2c3c(cc4c2CCC4)CCC3)c1 [MCC950, reference compound]",–,> 50 µM
"Cc1ccc(C(=O)/C=C/c2cccc(O)c2)cc1C [Compound F12, (E)-1-(3,4-dimethylphenyl)-3-(3-hydroxyphenyl)propyl-2-en-1-one]",15.4 ± 4.13%,> 50 µM
"O=C(/C=C/c1ccc(O)cc1)c1cccc(Cl)c1 [Compound W3, (E)-1-(3-chlorophenyl)-3-(4-hydroxyphenyl)propyl-2-en-1-one]",21.8 ± 9.56%,> 50 µM
"O=C(/C=C/c1cccc(O)c1)c1ccc(Br)cc1 [Compound F10, (E)-1-(4-bromophenyl)-3-(3-hydroxyphenyl)propyl-2-en-1-one]",24.2 ± 7.91%,> 50 µM
O=C(/C=C/c1ccccc1O)c1ccccc1 [Compound F1],52.1 ± 3.72%,> 50 µM
"COc1ccc(C(=O)/C=C/c2ccc(O)cc2)cc1 [Compound W4, (E)-3-(4-hydroxyphenyl)-1-(4-methoxyphenyl)propyl-2-en-1-one]",6.89 ± 4.78%,> 50 µM
"O=C(/C=C/c1ccc(O)cc1)c1ccccc1Cl [Compound W5, (E)-1-(2-chlorophenyl)-3-(4-hydroxyphenyl)propion-2-en-1-one]",51.7 ± 2.23%,> 50 µM
"COc1ccc(C(=O)/C=C/c2cccc(O)c2)cc1 [Compound F6, (E)-3-(3-hydroxyphenyl)-1-(4-methoxyphenyl)propyl-2-en-1-one]",25.1 ± 2.84%,> 50 µM
"O=C(/C=C/c1ccc(O)cc1)c1ccc(Cl)cc1 [Compound W7, (E)-1-(4-chlorophenyl)-3-(4-hydroxyphenyl)propyl-2-en-1-one]",24.3 ± 3.67%,> 50 µM
"Cc1ccc(C(=O)/C=C/c2ccccc2O)c(C)c1 [Compound F11, (E)-1-(2,4-dimethylphenyl)-3-(2-hydroxyphenyl)propyl-2-en-1-one]",88.7 ± 9.22%,> 50 µM
"O=C(/C=C/c1ccccc1O)c1ccccc1Cl [Compound F7, (E)-1-(2-chlorophenyl)-3-(2-hydroxyphenyl)propyl-2-en-1-one]",94.8 ± 3.29%,> 50 µM
"O=C(/C=C/c1ccc(O)cc1)c1ccccc1 [Compound W1, (E)-3-(4-hydroxyphenyl)-1-phenylprop-2-en-1-one]",17.8 ± 3.45%,> 50 µM
